Where two headings read alike, the source gives them in different places.
Legend:
Type in all cases: cell-based
[1] = tested on: HCV 1a RLuc cells (dicistronic genotype 1a H77 replicon, RLuc reporter); assay: microbe, parasite or virus in culture; details: Hepatitis C virus, read-out: 1a
How it was run: (§1)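 Renilla luciferase HCV replicon cells: dicistronic 1b Con1, 1a H77 or 2a JFH-1 replicons, or a JFH-1 chimera carrying J6 NS5A (M31 present). Compound in DMSO serial dilutions, 72 h incubation, then lysis and luciferase read. EC50 by non-linear regression.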

[2] = tested on: HCV 3a RLuc cells (NS5A chimeric genotype 1b Con1 replicon with consensus genotype 3a NS5A gene); assay: microbe, parasite or virus in culture; details: Hepatitis C virus, read-out: 3a, genotype 3a replicon
How it was run: (§2)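 Replicon cells stably carrying the listed RLuc-encoding dicistronic replicons were seeded and treated with DMSO serial dilutions of compound (10 mM stocks) diluted into culture medium. After 72 h, cells were lysed and Renilla luciferase activity measured. EC50 was derived by non-linear regression.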

[3] = tested on: HCV 1b RLuc cells (dicistronic genotype 1b Con1 replicon, RLuc reporter); assay: microbe, parasite or virus in culture; details: Hepatitis C virus, read-out: 1b (nM)
How it was run: as §1

[4] = tested on: HCV 4a Rluc cells (NS5A chimeric genotype 1b Con1 replicon with genotype 4a NS5A gene); assay: microbe, parasite or virus in culture; details: Hepatitis C virus, read-out: 4a
How it was run: as §2

[5] = tested on: HCV 2b Rluc cells (NS5A chimeric genotype 2a JFH-1 replicon with genotype 2b MD2b-1 NS5A gene, M31 present); assay: microbe, parasite or virus in culture; details: Hepatitis C virus, read-out: 2b
How it was run: as §2

[6] = tested on: HCV 2a JFH-1 Rluc cells (dicistronic genotype 2a JFH-1 replicon, RLuc reporter); assay: microbe, parasite or virus in culture; details: Hepatitis C virus, read-out: 2a JFH
How it was run: as §1

[7] = tested on: HCV 2a Rluc cells (NS5A chimeric genotype 2a JFH-1 replicon with genotype 2a J6 strain NS5A gene, M31 present); assay: HCV replicon reporter assay, genotype 2a J6 (M31 present); details: Hepatitis C virus, read-out: 2a J6
Description: Evaluation of cell-based anti-HCV activity: Antiviral potency (EC50) was determined using a Renilla luciferase (RLuc)-based HCV replicon reporter assay. To perform the assay for genotype 1 and 2a JFH-1, HCV 1b RLuc cells (harboring a dicistronic genotype 1b Con1 replicon that encodes a RLuc reporter), or HCV 1a RLuc cells (harboring a dicistronic genotype 1a H77 replicon that encodes a RLuc reporter), or HCV 2a JFH-1 Rluc cells (harboring a dicistronic genotype 2a JFH-1 replicon that encodes a RLuc reporter) were dispensed into 384-well plates. To perform the assay for genotype 2a (with M31 present) or 2b, HCV 2a Rluc or 2b Rluc cells (both with M31 present) harboring a dicistronic NS5A chimeric genotype 2a JFH-1 replicon that encodes a RLuc reporter and either genotype 2a J6 strain NS5A gene or genotype 2b MD2b-1 NS5A gene (based on Los Alamos HCV database isolates, both with M31 present) respectively, were dispensed into 384-well plates. To perform the assay for genotype 3 and 4, HCV 3a RLuc or 4a Rluc cells harboring a dicistronic NS5A chimeric genotype 1b Con1 replicon that encodes a RLuc reporter and either a consensus genotype 3a NS5A gene or genotype 4a NS5A gene (based on Los Alamos HCV database isolates) respectively, were dispensed into 384-well plates. Compounds were re-suspended in DMSO at a concentration of 10 mM and serially diluted in DMSO either manually or using an automated pipeting instrument. Serially diluted compounds were mixed with cell culture media and added to the seeded cells. […] 72 hours later, cells were lysed and Renilla luciferase activity quantified as recommended by the manufacturer (Promega-Madison, Wis.). Non-linear regression was performed to calculate EC50 values.

[8] = genotype 2a JFH-1 RLuc replicon

| Compound | EC50 [1] [pM] | EC50 [2] [pM] | EC50 [3] [nM] | EC50 [4] [pM] | EC50 [5] [pM] | EC50 [6] [pM] | EC50 ([1]; genotype 1a replicon) [pM] | EC50 ([6]; genotype 2a JFH-1 replicon) [pM] | EC50 [7] [pM] | EC50 ([1]; genotype 1a H77 RLuc replicon) [pM] | EC50 [6, 8] [pM] |
| --- | --- | --- | --- | --- | --- | --- | --- | --- | --- | --- | --- |
| CC[C@H](C)C(NC(=O)OC)C(=O)N1CCC[C@H]1c1ncc(-c2cc3c4c(c2)OCc2cc(-c5cnc([C@@H]6CCCN6C(=O)[C@@H](NC(=O)OC)[C@@H](C)CC)[nH]5)cc(c2-4)OC3)[nH]1 (stereo in doubt) [Example 346] | 1 to 999 | 1 to 990 | 0.019 | 1 to 990 | 1000 to 44000 | 1 to 999 |  |  |  |  |  |
| COC(=O)N[C@H](C(=O)N1CCC[C@H]1c1ncc(-c2cc3c4c(c2)COc2cc(-c5cnc([C@@H]6CCCN6C(=O)[C@@H](NC(=O)OC)C(C)C)[nH]5)cc(c2-4)CC3)[nH]1)C(C)C [Example 370] |  | 1 to 990 | 0.028 | 1 to 990 |  |  | 1 to 999 | 1 to 999 | > 44000 |  |  |
| COC(=O)N[C@H](C(=O)N1[C@@H]2CC[C@@H](C2)[C@H]1c1nc(Cl)c(-c2ccc(-c3ccc4c(ccc5nc([C@@H]6C[C@H]7C[C@H]7N6C(=O)[C@@H](NC(=O)OC)C(C)C)[nH]c54)c3)cc2)[nH]1)C(C)C [Example 381] |  | 1 to 990 | 0.008 | 1 to 990 |  |  | 1 to 999 | 1 to 999 | > 44000 |  |  |
| COC(=O)N[C@H](C(=O)N1CCC[C@H]1c1ncc(-c2cc3c4c(c2)OCc2cc(-c5[nH]c([C@@H]6CCCN6C(=O)[C@@H](NC(=O)OC)C(C)C)nc5Cl)cc(c2-4)OC3)[nH]1)C(C)C [Example 389] |  | 1 to 990 | 0.015 | 1 to 990 |  |  | 1 to 999 | 1 to 999 | 1000 to 44000 |  |  |
| COC(=O)N[C@H](C(=O)N1[C@@H]2C[C@@H]2C[C@H]1c1ncc(-c2ccc(-c3ccc4c(ccc5nc([C@@H]6C[C@H]7C[C@H]7N6C(=O)[C@@H](NC(=O)OC)C(C)C)[nH]c54)c3)cc2F)[nH]1)C(C)C [Example 390] |  | 1000 to 4990 | 0.003 | 1 to 990 |  |  | 1 to 999 | 1 to 999 | > 44000 |  |  |
| COC(=O)N[C@H](C(=O)N1[C@@H]2CC[C@@H](C2)[C@H]1c1nc2ccc3cc(-c4ccc(-c5cnc([C@@H]6C[C@H]7C[C@H]7N6C(=O)[C@@H](NC(=O)OC)C(C)C)[nH]5)c(F)c4)ccc3c2[nH]1)C(C)C [Example 391] |  | > 5000 | 0.009 | 1 to 990 |  |  | 1 to 999 | 1 to 999 | > 44000 |  |  |
| COC(=O)N[C@H](C(=O)N1[C@@H]2CC[C@@H](C2)[C@H]1c1nc2ccc3cc(-c4ccc(-c5cnc([C@@H]6C[C@H]7C[C@H]7N6C(=O)[C@@H](NC(=O)OC)C6CCOCC6)[nH]5)c(F)c4)ccc3c2[nH]1)C(C)C [Example 392] |  | 1000 to 4990 | 0.022 | 1 to 990 |  |  | 1 to 999 | 1 to 999 | > 44000 |  |  |
| COC(=O)N[C@H](C(=O)N1CCC[C@H]1c1ncc(-c2ccc3c(c2)COc2cc(-c4cnc([C@@H]5CCCN5C(=O)[C@@H](NC(=O)OC)C(C)C)[nH]4)cc(F)c2-3)[nH]1)C(C)C [Example 393] |  | 1 to 990 | 0.012 | 1 to 990 |  |  | 1 to 999 | 1 to 999 | > 44000 |  |  |
| COC(=O)N[C@H](C(=O)N1CCC[C@H]1c1nc(Cl)c(-c2cc3c4c(c2)OCc2cc(-c5[nH]c([C@@H]6CCCN6C(=O)[C@H](NC(=O)OC)c6ccccc6)nc5Cl)cc(c2-4)OC3)[nH]1)C(C)C [Example 399] |  | 1 to 990 | 0.017 | 1 to 990 |  |  | 1 to 999 | 1 to 999 | 1 to 999 |  |  |
| COC(=O)N[C@H](C(=O)N1[C@@H]2CC[C@@H](C2)[C@H]1c1nc(Cl)c(-c2ccc(-c3ccc4c(ccc5nc([C@@H]6CCCN6C(=O)[C@H](NC(=O)OC)c6ccccc6)[nH]c54)c3)cc2)[nH]1)C(C)C [Example 401] |  | 1 to 990 | 0.015 | 1 to 990 |  |  | 1 to 999 | 1 to 999 | 1000 to 44000 |  |  |
| COC(=O)N[C@H](C(=O)N1CCC[C@H]1c1nc2ccc3cc(-c4ccc(-c5[nH]c([C@@H]6[C@H]7CC[C@H](C7)N6C(=O)[C@H](NC(=O)OC)c6ccccc6)nc5Cl)cc4)ccc3c2[nH]1)C(C)C [Example 402] |  | 1 to 990 | 0.015 | 1 to 990 |  |  | 1 to 999 | 1 to 999 | > 44000 |  |  |
| COC(=O)N[C@H](C(=O)N1CCC[C@H]1c1nc(Cl)c(-c2ccc3c(c2)OCc2c-3ccc(-c3[nH]c([C@@H]4CCCN4C(=O)[C@@H](NC(=O)OC)C(C)C)nc3Cl)c2F)[nH]1)C(C)C [Example 404] |  | 1 to 990 | 0.008 | 1 to 990 |  |  | 1 to 999 | 1 to 999 | > 44000 |  |  |
| COC(=O)N[C@H](C(=O)N1[C@@H]2CC[C@@H](C2)[C@H]1c1nc2ccc3cc(-c4ccc5c(ccc6nc([C@@H]7C[C@H]8C[C@H]8N7C(=O)[C@@H](NC(=O)OC)C(C)C)[nH]c65)c4)ccc3c2[nH]1)C(C)C [Example 405] |  | 1 to 990 | 0.009 | 1 to 990 |  |  | 1 to 999 | 1 to 999 | 1000 to 44000 |  |  |
| COC(=O)N[C@@H](C(=O)N1[C@@H]2CC[C@@H](C2)[C@H]1c1nc2ccc3cc(-c4ccc5c(ccc6nc([C@@H]7C[C@H]8C[C@H]8N7C(=O)[C@H](NC(=O)OC)c7ccccc7)[nH]c65)c4)ccc3c2[nH]1)c1ccccc1 [Example 406] |  | 1 to 990 | 0.017 | 1 to 990 |  |  | 1 to 999 | 1 to 999 | 1 to 999 |  |  |
| COC(=O)N[C@H](C(=O)N1CCC[C@H]1c1nnc(-c2ccc(-c3ccc4c(ccc5nc([C@@H]6CCCN6C(=O)[C@@H](NC(=O)OC)C(C)C)[nH]c54)c3)cc2)[nH]1)C(C)C [Example 407] |  | 1000 to 4990 | 0.048 | 1 to 990 |  |  | 1 to 999 | 1 to 999 | > 44000 |  |  |
| COC(=O)N[C@H](C(=O)N1[C@@H](C)CC[C@H]1c1ncc(-c2ccc3c(c2)COc2cc4c(ccc5nc([C@@H]6CCCN6C(=O)[C@@H](NC(=O)OC)C6CCOCC6)[nH]c54)cc2-3)[nH]1)C(C)C [Example 602] |  |  |  |  | 1 to 999 |  |  |  | 1 to 999 | 1 to 999 | 1 to 999 |
| COC[C@H]1C[C@@H](c2ncc(-c3ccc4c(c3)COc3cc5c(ccc6nc([C@@H]7CCCN7C(=O)[C@@H](NC(=O)OC)C(C)C)[nH]c65)cc3-4)[nH]2)N(C(=O)[C@H](N)c2ccccc2)C1 [Example 607] |  |  |  |  | 1 to 999 |  |  |  | 1 to 999 | 1 to 999 | 1 to 999 |
| CC[C@@H](C)[C@H](NC(=O)OC)C(=O)N1C[C@@H](COC)C[C@H]1c1ncc(-c2ccc3c(c2)COc2cc4c(ccc5nc([C@@H]6CC[C@H](C)N6C(=O)[C@@H](NC(=O)OC)C(C)C)[nH]c54)cc2-3)[nH]1 [Example 628] |  |  |  |  | 1 to 999 |  |  |  | 1 to 999 | 1 to 999 | 1 to 999 |
| COC[C@H]1C[C@@H](c2nc3ccc4cc5c(cc4c3[nH]2)OCc2cc(-c3cnc([C@@H]4CCCN4C(=O)[C@H](NC(=O)OC)c4ccccc4)[nH]3)ccc2-5)N(C(=O)[C@@H](NC(=O)OC)[C@@H](C)OC)C1 [Example 635] | 1 to 999 |  |  |  | 1 to 999 | 1 to 999 |  |  |  |  |  |
| CC[C@@H](C)[C@H](NC(=O)OC)C(=O)N1C[C@@H](COC)C[C@H]1c1nc2ccc3cc4c(cc3c2[nH]1)OCc1cc(-c2cnc([C@@H]3CC[C@H](C)N3C(=O)[C@@H](NC(=O)OC)[C@H](C)CC)[nH]2)ccc1-4 [Example 643] |  |  |  |  | 1 to 999 |  |  |  | 1 to 999 | 1 to 999 | 1 to 999 |
